Results reported in PMC10458596, “Synthesis, In Silico Logp Study, and In Vitro Analgesic Activity of Analogs of Tetrapeptide FELL” (Pharmaceuticals, 2023).
Residues, ends and D or L forms follow the SMILES beside them.

What was measured:
male Wistar rats [1] = assay: Paw-pressure test (Randall-Selitto test), PPT; format: in vivo, rat; conditions: for Analgesic activity (PPT) over time: 0.25 mg/kg i.p. in saline, measured every 10 min from 10th to 50th min, n = 8-10 per group, PPT in AU, mean ± S.E.M. (Figure 2)
Procedure: (§1) The experiments were carried out on male Wistar rats (180–200 g) kept under normal conditions at ambient room temperature (22 °C). The animals were divided into five experimental groups, each including 8–10 animals, and a control group (n = 10). All experimental procedures were carried out between 10:00 a.m. and 1:00 p.m. after having been approved by the Research Ethics Commission of the Medical University—Sofia.
(§2) The control group received 0.2 mL of saline intraperitoneally injected (i.p.), while the animals from each one of the experimental groups received 0.2 mL (0.25 mg/kg, i.p.) of one of the five newly synthesized analogs dissolved in saline.
(§3) Changes in the mechanical nociceptive thresholds (PPT) of experimental animals were measured by an analgesimeter. Pressure was applied to the hind paw, and the value (g) required to elicit a nociceptive response (i.e., a squeak or struggle) was taken as the mechanical nociceptive threshold. A cut-off value of 500 g was used to prevent damage to the paw.
(§4) Nociception was evaluated every 10 min from the 10th minute after the newly synthesized analog was administered until the 50th minute.
The results were statistically assessed by one-way analysis of variance followed by a Newman-Keuls post-hoc comparison test. Values are represented as mean ± S.E.M. Values of p < 0.05 were considered to indicate statistical significance.

male Wistar rats [2] = assay: Paw-pressure test after Naloxone or AM251 pretreatment; format: in vivo, rat; conditions: 10th to 50th min (Figure 3); for Analgesia (PPT) after AM251 pretreatment: peptide i.p. after AM251 (CB1R antagonist) pretreatment; for Analgesia (PPT) after Naloxone pretreatment: peptide i.p. after Naloxone (MOR antagonist) pretreatment
Procedure: as §1, §2, §3, §4
In order to estimate which type of receptor participates in the analgesic effects of the newly synthesized substances, pretreatments have been made with Naloxone—an antagonist with a high binding affinity for the MORs, clinically used to prevent fatal overdose consequences—and AM251—a CB1Rs’ antagonist.

[3] = system: white blood cells (WBC), especially neutrophils and macrophages, in bronchoalveolar fluid (BALF); design: method as in PMID 25632019; conditions: cited from earlier work

Compound	Analgesic activity (PPT) over time (male Wistar rats [1])	Reduction of total number of white blood cells and their accumulation in BALF in the lungs [3]	other results
CC(C)C[C@H](NC(=O)[C@H](CC(C)C)NC(=O)[C@H](CCC(=O)O)NC(=O)[C@@H](N)Cc1ccccc1)C(N)=O [BB1, H-Phe-Glu-Leu-Leu-NH2] (H-FELL-NH2)	gradually increasing analgesic activity over time		Analgesic activity (PPT) vs parent compound BB11 at the end of the reported period (male Wistar rats [1]; 0.25 mg/kg i.p., 50th min, F = 5.38217, p = 0.042776): exceeded that of the parent compound BB11; Analgesia (PPT) after AM251 pretreatment (male Wistar rats [2]): completely abolished the analgesia; Analgesia (PPT) after Naloxone pretreatment (male Wistar rats [2]): completely abolished the analgesia
CCCC[C@H](NC(=O)[C@H](CCCC)NC(=O)[C@H](CCC(=O)O)NC(=O)[C@@H](N)Cc1ccccc1)C(N)=O [BB2, H-Phe-Glu-Nle-Nle-NH2] (HELM PEPTIDE1{F.E.[Nle].[Nle].[am]}$$$$V2.0)	fluctuating analgesia that did not reach the values of the parent compound		
CC(C)[C@H](NC(=O)[C@@H](NC(=O)[C@H](CCC(=O)O)NC(=O)[C@@H](N)Cc1ccccc1)C(C)C)C(N)=O [BB3, H-Phe-Glu-Val-Val-NH2] (H-FEVV-NH2)	highest but short-lasting analgesic activity		Analgesic activity (PPT) vs BB11 at the 10th minute (male Wistar rats [1]; 0.25 mg/kg i.p., 10th min, F = 92.35602, p < 0.00001): exceeded that of BB11
CC(C)C[C@H](NC(=O)[C@H](CC(C)C)NC(=O)[C@H](CCC(=O)O)NC(=O)[C@@H](N)Cc1ccccc1)C(=O)O [BB11, H-Phe-Glu-Leu-Leu-OH, reference compound] (H-FELL-OH)	constantly increased PPT for the total time of the evaluation	51%	Analgesia (PPT) after AM251 pretreatment (male Wistar rats [2]): completely abolished the analgesia; Analgesia (PPT) after Naloxone pretreatment (male Wistar rats [2]): completely abolished the analgesia
H-Phe-Glu-Ile-Ile-NH2 [BB4, FELL analog with Ile at positions 3 and 4, C-terminal amide]	fluctuating analgesia that did not reach the values of the parent compound		
TDIFELL		54%	
TDIFELLK		57%	
